Consider 19 molecules from ChEMBL document CHEMBL1687808, “LmrS is a multidrug efflux pump of the major facilitator superfamily from Staphylococcus aureus” (2010).

As usually defined, the MIC is the smallest concentration in the dilution series that meets the test's criterion for growth inhibition. A word on the inhibition: it is the relative decrease from the control value, in per cent.

Converted amounts (≈) assume the structure as drawn. The source made the active and inactive calls.

The test system of experiment [1] is Escherichia coli. Kind of experiment: Ratio of MIC for Escherichia coli KAM32 harboring cloned pSP72 lmrS to MIC for Escherichia coli KAM32 harboring pSP72. The experiment is classed as functional.
For experiment [2], the system named is Escherichia coli. Kind of experiment: Antibacterial activity against Escherichia coli KAM32 harboring pSP72 by broth microdilution method. The experiment is classed as functional.
For experiment [3], the system named is Escherichia coli. Kind of experiment: Antibacterial activity against Escherichia coli KAM32 harboring Staphylococcus aureus cloned pSP72 lmrS by broth microdilution method. The experiment is classed as functional. A general note: Broth dilution looks for growth in wells or tubes with falling amounts of substance.
For experiment [4], the system named is Staphylococcus aureus. Kind of experiment: Inhibition of Staphylococcus aureus LmrS expressed in Escherichia coli KAM32 harboring pSP72 assessed as decrease of ethidium bromide efflux at 0.01 mM after 6 mins by fluorescence spectrophotometer relative to control.
In experiment [5] the test system is Escherichia coli. As to the kind of experiment: Inhibition of ethidium bromide accumulation in Escherichia coli KAM32 harboring pSP72 at 100 uM by fluorescence spectrophotometer. The experiment is classed as functional, organism-based.
Experiment [6] deals with Staphylococcus aureus. Kind of experiment: Inhibition of Staphylococcus aureus LmrS expressed in Escherichia coli KAM32 harboring pSP72 assessed as decrease of ethidium bromide accumulation at 100 uM by fluorescence spectrophotometer relative to control.
Experiment [7] has as its system Escherichia coli. As to the kind of experiment: Antibacterial activity against Escherichia coli KAM32 harboring Staphylococcus aureus cloned pSP72 lmrS by broth microdilution method in presence of efflux pump inhibitor CCCP. The experiment is classed as functional.

For `COc1cc(NS(=O)(=O)c2ccc(N)cc2)nc(OC)n1` [SULFADIMETHOXINE], in experiment [1], the MIC ratio came to 2. For the same molecule, the minimal inhibitory concentration (MIC) in experiment [2] worked out at 4.88 µg/mL (≈ 15.7 µM); in experiment [3], 9.76 µg/mL (≈ 31.4 µM).

For the molecule `N#CC(C#N)=NNc1cccc(Cl)c1` [CARBONYL CYANIDE M-CHLOROPHENYLHYDRAZONE], the inhibition in experiment [4] was 40%. The molecule further registered a minimum inhibitory concentration (MIC) in experiment [2] of 8 µg/mL (≈ 39.1 µM). The inhibition result in experiment [5] is “inactive”.

In the case of `COc1cc(Cc2cnc(N)nc2N)cc(OC)c1OC` [TRIMETHOPRIM], the MIC ratio in experiment [1] was 8.2. The figures for the MIC in experiment [2] and in experiment [3] were 0.02 µg/mL (≈ 0.0689 µM) and 0.16 µg/mL (≈ 0.551 µM), respectively.

For the molecule `[Cl-].c1ccc([P+](c2ccccc2)(c2ccccc2)c2ccccc2)cc1` [TETRAPHENYLPHOSPHONIUM CHLORIDE], the MIC ratio in experiment [1] was found to be 16. Besides, the MIC in experiment [2] was determined as 9.76 µg/mL; in experiment [3], 156 µg/mL.

As for `CCCCCCCCCCCCOS(=O)(=O)[O-].[Na+]` [SODIUM LAURYL SULFATE], the MIC ratio in experiment [1] was determined as 8. Further, the values for the MIC in experiment [2] and in experiment [3] were 31.2 µg/mL and 250 µg/mL, respectively.

Cetyltrimethylammonium bromide: the minimal inhibitory concentration (MIC) in experiment [2] stood at 3.9 µg/mL; in experiment [3], 7.8 µg/mL.

Molecule `COC(=O)[C@H]1[C@H]2C[C@@H]3c4[nH]c5cc(OC)ccc5c4CCN3C[C@H]2C[C@@H](OC(=O)c2cc(OC)c(OC)c(OC)c2)[C@@H]1OC` [RESERPINE] gave an MIC in experiment [2] of 62 µg/mL (≈ 102 µM).

For `O=C(N[C@H](CO)[C@H](O)c1ccc([N+](=O)[O-])cc1)C(Cl)Cl` [CHLORAMPHENICOL], the MIC ratio in experiment [1] turned out to be 8. Besides, the MIC in experiment [2] worked out at 0.39 µg/mL (≈ 1.21 µM); in experiment [3], 3.13 µg/mL (≈ 9.69 µM).

As for `CN(C)[C@@H]1C(O)=C(C(N)=O)C(=O)[C@@]2(O)C(O)=C3C(=O)c4c(O)cccc4[C@@](C)(O)[C@H]3[C@H](O)[C@@H]12` [OXYTETRACYCLINE], the MIC ratio in experiment [1] is 4. The MIC is 0.1 µg/mL (≈ 0.217 µM) in experiment [2] and 0.39 µg/mL (≈ 0.847 µM) in experiment [3].

For the molecule `COc1c(N2CCNC(C)C2)c(F)cc2c(=O)c(C(=O)O)cn(C3CC3)c12` (stereo unspecified) [GATIFLOXACIN], the MIC ratio in experiment [1] was 4.1. Moreover, the results for the MIC in experiment [2] and in experiment [3] were 0.02 µg/mL (≈ 0.0533 µM) and 0.08 µg/mL (≈ 0.213 µM), respectively.

`CN[C@@H]1[C@H](O[C@H]2[C@H](O[C@H]3[C@H](O)[C@@H](O)[C@H](N=C(N)N)[C@@H](O)[C@@H]3N=C(N)N)O[C@@H](C)[C@]2(O)C=O)O[C@@H](CO)[C@H](O)[C@H]1O` [STREPTOMYCIN]: in experiment [1], the MIC ratio was 8. In addition, the MIC in experiment [2] was determined as 0.78 µg/mL (≈ 1.34 µM); in experiment [3], 6.25 µg/mL (≈ 10.7 µM).

With `CC(=O)NC[C@H]1CN(c2ccc(N3CCOCC3)c(F)c2)C(=O)O1` [LINEZOLID], the MIC ratio in experiment [1] amounted to 16. Moreover, the minimum inhibitory concentration (MIC) in experiment [2] worked out at 1.95 µg/mL (≈ 5.78 µM); in experiment [3], 31.2 µg/mL (≈ 92.6 µM).

Take `NC[C@H]1O[C@H](O[C@H]2[C@H](O)[C@@H](O[C@H]3O[C@H](CO)[C@@H](O)[C@H](N)[C@H]3O)[C@H](N)C[C@@H]2N)[C@H](O)[C@@H](O)[C@@H]1O` [KANAMYCIN]: in experiment [1], the MIC ratio is 8. Moreover, the minimal inhibitory concentration (MIC) in experiment [2] is 15.6 µg/mL (≈ 32.3 µM); in experiment [3] it was 125 µg/mL (≈ 258 µM).

For the molecule `CCC[C@@H]1C[C@@H](C(=O)N[C@@H]([C@H]2O[C@H](SC)[C@H](O)[C@@H](O)[C@H]2O)[C@@H](C)O)N(C)C1` [LINCOMYCIN], the MIC ratio in experiment [1] is 4. The minimal inhibitory concentration (MIC) in experiment [2] was determined as 31.2 µg/mL (≈ 76.9 µM); in experiment [3], 125 µg/mL (≈ 307 µM).

With `CS(=O)(=O)c1ccc([C@@H](O)[C@@H](CF)NC(=O)C(Cl)Cl)cc1` [FLORFENICOL], the MIC ratio in experiment [1] stood at 8. Besides, the minimum inhibitory concentration (MIC) turned out to be 0.39 µg/mL (≈ 1.09 µM) in experiment [2] and 3.13 µg/mL (≈ 8.74 µM) in experiment [3].

Take `CC[n+]1c(-c2ccccc2)c2cc(N)ccc2c2ccc(N)cc21.[Br-]` [HOMIDIUM BROMIDE]: in experiment [1], the MIC ratio turned out to be 8. The MIC in experiment [2] is 7.8 µg/mL; in experiment [3] it was 62.5 µg/mL. The inhibition in experiment [6] was 30%.

Regarding `CC(=O)O[C@H]1C[C@@]2(C)[C@@H](C[C@@H](O)[C@H]3[C@@]4(C)CC[C@@H](O)[C@@H](C)[C@@H]4CC[C@@]32C)/C1=C(\CCC=C(C)C)C(=O)O` [FUSIDIC ACID], the MIC ratio in experiment [1] came out at 8. Moreover, the minimal inhibitory concentration (MIC) turned out to be 31.2 µg/mL (≈ 60.5 µM) in experiment [2], 62.5 µg/mL in experiment [7] and 250 µg/mL (≈ 484 µM) in experiment [3].

As to `CC[C@H]1OC(=O)[C@H](C)[C@@H](O[C@H]2C[C@@](C)(OC)[C@@H](O)[C@H](C)O2)[C@H](C)[C@@H](O[C@@H]2O[C@H](C)C[C@H](N(C)C)[C@H]2O)[C@](C)(O)C[C@@H](C)C(=O)[C@H](C)[C@@H](O)[C@]1(C)O` [ERYTHROMYCIN], the MIC ratio in experiment [1] is 8.2. Moreover, the MIC in experiment [2] was 1.9 µg/mL (≈ 2.59 µM); in experiment [3] it was 15.6 µg/mL (≈ 21.3 µM).

Take `CO[C@H]1/C=C/O[C@@]2(C)Oc3c(C)c(O)c4c(O)c(c(/C=N/N5CCN(C)CC5)c(O)c4c3C2=O)NC(=O)/C(C)=C\C=C\[C@H](C)[C@H](O)[C@@H](C)[C@@H](O)[C@@H](C)[C@H](OC(C)=O)[C@@H]1C` [RIFAMPIN]: the MIC ratio in experiment [1] is 2.1. Besides, the MIC in experiment [2] stood at 1.9 µg/mL (≈ 2.31 µM); in experiment [3], 3.9 µg/mL (≈ 4.74 µM).
